According to patent US20240124439A1, “Pyrido[2,3-D]Imidazole Derivatives and Their Use As Inhibitors of ITK for the Treatment of Skin Disease” (Pfizer Inc., priority 2020, published 2024):

Experiments:
[1] = target: IL-2-Inducible T-Cell Kinase (ITK) (Homo sapiens (Human), UniProt Q08881); test: ITK enzyme assay (IL-2-inducible T-cell kinase activity); format: biochemical; details: geometric mean of count n
Description: ITK activity was determined by measuring the effect of a test compound in an ITK enzyme assay.
1.0 M HEPES Buffer pH 7.5 solution was prepared as follows: 238.3 g HEPES free acid (Sigma) and 800 mL of water were combined, and the mixture was stirred until complete dissolution. The pH was adjusted to 7.5 via titration with 5N NaOH and the volume adjusted to 1000 mL. The solution was filtered and sterilized.
ITK assay buffer was prepared as follows: 50 mL of HPLC-grade water was treated with 2 mL of 1.0 M HEPES Buffer, 500 μL of 2% Gelatin (Sigma), 1.0 mL of aqueous MgCl2 solution (1.0 M), and 1.0 mL of aqueous glutathione solution (0.5 M), and the solution was mixed. The solution was brought to 99 mL in a graduated cylinder by addition of water and sterilized through a 0.2 μm filter. 0.1 mL of Brij-35™ Surfact-Amps™ Detergent Solution (10% w/v aqueous solution, ThermoFisher) and 1.0 mL of ATP (Teknova,100 mM) were added and the solution was mixed.
Preparation of 1.33× ITK enzyme solution was as follows: 49.99 mL of ITK assay buffer was treated with 4.1 μL of ITK enzyme (ITK FL (N-Flag and C-His tagged, […]) Lake Pharma, 0.25 mg/ml in a buffer containing 25 mM Tris pH 7.8, 150 mM NaCl, 10% glycerol and 2 mM TCEP) and the mixture was gently agitated. The resulting solution was stored on ice. 30 Minutes prior to use, the enzyme solution was removed from ice and equilibrated to RT by incubation in a RT water bath.
Preparation of 4× ITK substrate solution was as follows: 50 mL of ITK assay buffer was treated with 100 μL of BTK peptide (China Peptide Company, 2 mM stock solution in DMSO). The tube was capped, mixed by gently inverting the tube, and then stored on ice. 30 Minutes prior to use, the substrate solution was removed from ice and equilibrated to RT by incubation in a RT water bath.
At the time of assay, 7.5 μL of the 1.33× ITK enzyme solution was added to plate wells containing 0.1 μL of varying concentrations of test compound in DMSO. The plate was incubated 30 min at RT. The plate wells were each treated with 2.5 uL of the 4× ITK substrate solution and the plate was sealed (TopSeal™, Perkin Elmer). The plate was spun at 1000 rpm for 30 sec and then incubated for 60 min at RT. The seal was removed, and each well was treated with 10 μL of Stop/Detect Buffer (20 mM HEPES pH 7.5, 0.01% gelatin, 1 nM LANCE PT66 (Perkin Elmer), 16.5 μg/ml Surelight APC (Perkin Elmer), 10 mM EDTA, 250 mM NaCl). The plate was again covered and was spun at 1000 rpm for […]. The plate was allowed to incubate overnight at RT and in a closed carrier to reduce dehydration. The seal was removed, and the fluorescence was read with a plate reader with an excitation wavelength of […]. The concentrations and resulting effect values for the tested compound were plotted and the concentration of compound required for 50% effect (IC50) was determined with the four-parameter logistic dose response equation.

[2] = test system: activated CD4+ human T-cells (IL-2); test: IL-2 inhibition in supernatants from activated CD4+ human T-cells (cisbio HTRF); format: cell-based; details: T-cell; CD3/CD28-activated CD4+ human T cells, ImmunoCult stimulation 20 to 24 hrs; geometric mean of count n
Description: IL-2 inhibition activity in supernatants from activated CD4+ human T-cells was determined by measuring the effect of a test compound on the activity using the cisbio HTRF™ technology.
Human CD4+ T cells were activated with CD3/CD28 for 3 days and expanded for an additional 4-6 days (7 to 9 days total). On day 0, frozen CD4+ T cells were thawed, treated with CD3/CD28 Dynabeads, and incubated at 37° C./5% CO2. On day 3, the beads were removed, and the cells were diluted to 5×10^5 cells/cm^2, placed in G-Rex10 flask, and incubated at 37° C./5% CO2. On day 7 to day 9 the cells were removed from the G-Rex flasks, counted and diluted back to 1×10^6 cells/ml in standard tissue culture flask.
The expanded CD4+ T-cells were centrifuged at 300×g for 10 minutes and resuspended to 0.5 million cells per ml (30,000 cells/well). 60 μl of CD4+ T cells were added per well to a 384 well plate containing 0.1 μL of varying concentrations of test compound in DMSO. The plates were incubated for 15 min at 37° C./5% CO2. 20 μl of diluted ImmunoCult™ (STEMCELL Technologies, 1:12.5 in T cell assay media) were added to all wells of the plate (1:50 final assay concentration). The plates were incubated for an additional 20 to 24 hrs at 37° C./5% CO2. The plates were centrifuged at 300×g for 10 minutes. 16 μL of supernatant was removed and combined with 4 μl of IL-2 HTRF Abs. (cisbio kit). Plates were incubated for 3 hours at RT and read with an EnVision plate reader at 665 nm and 615 nm wavelengths. The concentrations and resulting effect values for the tested compound were plotted and the concentration of compound required for 50% effect (IC50) was determined with the four-parameter logistic dose response equation.

Chain of IL-2-Inducible T-Cell Kinase (ITK) (Q08881 whole entry): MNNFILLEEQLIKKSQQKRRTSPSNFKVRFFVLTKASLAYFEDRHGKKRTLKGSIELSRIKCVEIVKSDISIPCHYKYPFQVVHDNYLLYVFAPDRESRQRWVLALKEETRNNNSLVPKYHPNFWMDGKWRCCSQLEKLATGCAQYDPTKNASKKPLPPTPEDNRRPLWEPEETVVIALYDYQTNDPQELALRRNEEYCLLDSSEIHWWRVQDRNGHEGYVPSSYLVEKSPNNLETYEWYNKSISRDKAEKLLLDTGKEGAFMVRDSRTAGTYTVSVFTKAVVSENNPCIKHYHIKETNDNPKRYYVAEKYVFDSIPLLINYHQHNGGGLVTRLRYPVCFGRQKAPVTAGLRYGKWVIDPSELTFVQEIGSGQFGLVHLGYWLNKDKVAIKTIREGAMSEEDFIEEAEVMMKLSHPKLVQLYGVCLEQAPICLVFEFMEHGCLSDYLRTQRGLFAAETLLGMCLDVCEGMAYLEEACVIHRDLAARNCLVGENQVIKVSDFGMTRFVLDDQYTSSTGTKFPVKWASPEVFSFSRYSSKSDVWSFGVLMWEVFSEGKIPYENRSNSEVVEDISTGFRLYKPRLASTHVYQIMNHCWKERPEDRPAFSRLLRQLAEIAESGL

Row | Compound | IC50 [1] [nM] | IC50 [2] [nM]
1 | CC(C(=O)N(C)c1cnc2[nH]c(-c3n[nH]c4c3C[C@@H]3C[C@]3(C)C4)nc2c1)C1CCOCC1 (stereo partly drawn) [Example 9, N-Methyl-N-(2-((4aS,5aR)-5a-methyl-1,4,4a,5,5a,6-hexahydrocyclopropa[f]indazol-3-yl)-3H-imidazo[4,5-b]pyridin-6-yl)-2-(tetrahydro-2H-pyran-4-yl)propanamide] | 24 | 147
2 | C[C@@H](C(=O)N(CCO)c1cnc2[nH]c(-c3n[nH]c4c3C[C@@H]3C[C@]3(C)C4)nc2c1)N1CCOCC1 [Example 15, (S)-N-(2-Hydroxyethyl)-N-(2-((4aS,5aR)-5a-methyl-1,4,4a,5,5a,6-hexahydrocyclopropa[f]indazol-3-yl)-3H-imidazo[4,5-b]pyridin-6-yl)-2-morpholinopropanamide] | 83 | 1230
3 | CCN(C(=O)[C@H](C)N1CCOCC1)c1cnc2nc(-c3n[nH]c4c3C[C@@H]3C[C@]3(C)C4)[nH]c2c1 [Example 21, (S)-N-Ethyl-N-(2-((4aS,5aR)-5a-methyl-1,4,4a,5,5a,6-hexahydrocyclopropa[f]indazol-3-yl)-1H-imidazo[4,5-b]pyridin-6-yl)-2-morpholinopropanamide] | 38 | 193
4 | Cc1nc2[nH]c(-c3n[nH]c4c3C[C@@H]3C[C@]3(C)C4)nc2cc1N(C)C(=O)[C@H](C)N1CCOCC1 [Example 34, (S)-N-Methyl-N-(5-methyl-2-((4aS,5aR)-5a-methyl-1,4,4a,5,5a,6-hexahydrocyclopropa[f]indazol-3-yl)-3H-imidazo[4,5-b]pyridin-6-yl)-2-morpholinopropanamide] | 61 | 481
5 | COCCOc1nc2[nH]c(-c3n[nH]c4c3C[C@@H]3C[C@]3(C)C4)nc2cc1N(C)C(=O)CN1CCOCC1 [Example 38, N-(5-(2-Methoxyethoxy)-2-((4aS,5aR)-5a-methyl-1,4,4a,5,5a,6-hexahydrocyclopropa[f]indazol-3-yl)-3H-imidazo[4,5-b]pyridin-6-yl)-N-methyl-2-morpholinoacetamide] | 152 | 464
6 | COCCOc1nc2[nH]c(-c3n[nH]c4c3C[C@@H]3C[C@]3(C)C4)nc2cc1N(C)C(=O)[C@@H](C)N1CCOCC1 [Example 39, (R)-N-(5-(2-Methoxyethoxy)-2-((4aS,5aR)-5a-methyl-1,4,4a,5,5a,6-hexahydrocyclopropa[f]indazol-3-yl)-3H-imidazo[4,5-b]pyridin-6-yl)-N-methyl-2-morpholinopropanamide] | 110 | 461
7 | C[C@@H](C(=O)N(C)c1cnc2[nH]c(-c3n[nH]c4c3C[C@@H]3C[C@]3(C)C4)nc2c1)N1CCCOCC1 [Example 43, (S)-N-Methyl-N-(2-((4aS,5aR)-5a-methyl-1,4,4a,5,5a,6-hexahydrocyclopropa[f]indazol-3-yl)-3H-imidazo[4,5-b]pyridin-6-yl)-2-(1,4-oxazepan-4-yl)propenamide] | 134 | 351
8 | C[C@H](C(=O)N(C)c1cnc2[nH]c(-c3n[nH]c4c3C[C@@H]3C[C@]3(C)C4)nc2c1)N1CCCOCC1 [Example 44, (R)-N-Methyl-N-(2-((4aS,5aR)-5a-methyl-1,4,4a,5,5a,6-hexahydrocyclopropa[f]indazol-3-yl)-3H-imidazo[4,5-b]pyridin-6-yl)-2-(1,4-oxazepan-4-yl)propenamide] | 101 | 226

Further compounds by falling IC50 [1], results first:

Row | IC50 [1] [nM] | IC50 [2] [nM] | Compound
9 | 231 | 1200 | CC(=O)N(C)c1cnc2[nH]c(-c3n[nH]c4c3CCC(C)(C)C4)nc2c1 [Example 20, N-(2-(6,6-Dimethyl-4,5,6,7-tetrahydro-1H-indazol-3-yl)-3H-imidazo[4,5-b]pyridin-6-yl)-N-methylacetamide]
10 | 143 | 462 | COc1nc2[nH]c(-c3n[nH]c4c3C[C@@H]3C[C@]3(C)C4)nc2cc1N(C)C(=O)CN1CCOCC1 [Example 35, N-(5-Methoxy-2-((4aS,5aR)-5a-methyl-1,4,4a,5,5a,6-hexahydrocyclopropa[f]indazol-3-yl)-3H-imidazo[4,5-b]pyridin-6-yl)-N-methyl-2-morpholinoacetamide]
11 | 130 | 709 | CC(=O)N(C)c1cnc2[nH]c(-c3n[nH]c4c3C[C@@H]3C[C@]3(C)C4)nc2c1 [Example 25, N-methyl-N-(2-((4aS,5aR)-5a-Methyl-1,4,4a,5,5a,6-hexahydrocyclopropa[f]indazol-3-yl)-1H-imidazo[4,5-b]pyridin-6-yl)acetamide]
12 | 117 | 279 | C[C@H](C(=O)N(C)c1cnc2nc(-c3n[nH]c4c3C[C@@H]3C[C@]3(C)C4)[nH]c2c1)n1cccn1 [Example 8, (R)-N-Methyl-N-(2-((4aS,5aR)-5a-methyl-1,4,4a,5,5a,6-hexahydrocyclopropa[f]indazol-3-yl)-1H-imidazo[4,5-b]pyridin-6-yl)-2-(1H-pyrazol-1-yl)propanamide]
13 | 102 | 559 | CN(C(=O)[C@@H](F)C1CCOCC1)c1cnc2nc(-c3n[nH]c4c3C[C@@H]3C[C@]3(C)C4)[nH]c2c1 [Example 13, (S)-2-Fluoro-N-methyl-N-(2-((4aS,5aR)-5a-methyl-1,4,4a,5,5a,6-hexahydrocyclopropa[f]indazol-3-yl)-1H-imidazo[4,5-b]pyridin-6-yl)-2-(tetrahydro-2H-pyran-4-yl)acetamide]
14 | 76 | 447 | CN(C(=O)[C@H](F)C1CCOCC1)c1cnc2nc(-c3n[nH]c4c3C[C@@H]3C[C@]3(C)C4)[nH]c2c1 [Example 12, (R)-2-Fluoro-N-methyl-N-(2-((4aS,5aR)-5a-methyl-1,4,4a,5,5a,6-hexahydrocyclopropa[f]indazol-3-yl)-1H-imidazo[4,5-b]pyridin-6-yl)-2-(tetrahydro-2H-pyran-4-yl)acetamide]
15 | 72 | 534 | CN(C(=O)C(F)C1CCOCC1)c1cnc2nc(-c3n[nH]c4c3C[C@@H]3C[C@]3(C)C4)[nH]c2c1 (stereo partly drawn) [Example 11, 2-Fluoro-N-methyl-N-(2-((4aS,5aR)-5a-methyl-1,4,4a,5,5a,6-hexahydrocyclopropa[f]indazol-3-yl)-1H-imidazo[4,5-b]pyridin-6-yl)-2-(tetrahydro-2H-pyran-4-yl)acetamide]
16 | 25 | 117 | CN(C(=O)CC1CCCC1)c1cnc2nc(-c3n[nH]c4c3C[C@@H]3C[C@]3(C)C4)[nH]c2c1 [Example 45, 2-Cyclopentyl-N-methyl-N-(2-((4aS,5aR)-5a-methyl-1,4,4a,5,5a,6-hexahydrocyclopropa[f]indazol-3-yl)-1H-imidazo[4,5-b]pyridin-6-yl)acetamide]
